Reference: the NIST ThermoML archive (doi:10.1021/je034162x)

Conditions: 101.33 kPa, Liquid, Hot wire method

C=CCCC [1-pentene]
Conditions	thermal conductivity [W/m/K]	thermal diffusivity [m2/s]
257.36 K	0.1284	–
257.67 K	0.1283	–
257.93 K	0.1283	–
258.93 K	–	9.28e-08
259.91 K	–	9.28e-08
260.57 K	–	9.25e-08
276.47 K	0.121	–
276.82 K	0.1209	–
277.07 K	0.1203	–
278.11 K	–	8.65e-08
279.18 K	–	8.7e-08
279.9 K	–	8.66e-08
294.04 K	0.1141	–
294.42 K	0.1139	–
294.66 K	0.1139	–
295.8 K	–	8.2e-08
296.87 K	–	8.16e-08
297.67 K	–	8.16e-08
301.07 K	0.1113	–
301.46 K	0.1112	–
301.75 K	0.1111	–
302.88 K	–	7.99e-08
303.99 K	–	7.96e-08
304.8 K	–	7.96e-08

C=C(C)C(C)C [2,3-dimethyl-1-butene]
Conditions	thermal conductivity [W/m/K]	thermal diffusivity [m2/s]
258.98 K	0.117	–
259.29 K	0.1169	–
259.4 K	0.1168	–
260.37 K	–	8.17e-08
261.29 K	–	8.19e-08
261.55 K	–	8.16e-08
278.29 K	0.1108	–
278.63 K	0.1106	–
278.87 K	0.1105	–
279.73 K	–	7.65e-08
280.7 K	–	7.67e-08
281.39 K	–	7.68e-08
294.18 K	0.1058	–
294.53 K	0.1056	–
294.78 K	0.1055	–
295.65 K	–	7.3e-08
296.68 K	–	7.29e-08
297.38 K	–	7.28e-08
312.86 K	0.1002	–
313.23 K	0.1	–
313.5 K	0.09991	–
314.43 K	–	6.88e-08
315.45 K	–	6.84e-08
316.18 K	–	6.83e-08
322.51 K	0.0974	–
322.9 K	0.0973	–
323.18 K	0.0972	–
324.07 K	–	6.6e-08
325.17 K	–	6.65e-08
325.9 K	–	6.62e-08
326.52 K	0.09639	–
326.91 K	0.09621	–
327.21 K	0.09612	–
328.13 K	–	6.58e-08
329.22 K	–	6.58e-08
330.05 K	–	6.62e-08

[2H]c1c([2H])c([2H])c([2H])c([2H])c1[2H] [benzene-d6]
Conditions	thermal conductivity [W/m/K]	thermal diffusivity [m2/s]
280.76 K	0.1398	–
281.06 K	0.1397	–
281.26 K	0.1396	–
282.09 K	–	8.1e-08
282.98 K	–	8.15e-08
283.58 K	–	8.12e-08
291.53 K	0.1364	–
291.83 K	0.1363	–
292.04 K	0.1362	–
292.92 K	–	7.93e-08
293.83 K	–	7.96e-08
294.46 K	–	7.95e-08
304.05 K	0.1323	–
304.37 K	0.1322	–
304.59 K	0.1321	–
305.49 K	–	7.7e-08
306.42 K	–	7.69e-08
307.08 K	–	7.69e-08
316.34 K	0.1284	–
316.66 K	0.1283	–
316.89 K	0.1282	–
317.82 K	–	7.46e-08
318.77 K	–	7.45e-08
319.44 K	–	7.44e-08
326.75 K	0.1252	–
327.08 K	0.125	–
327.31 K	0.1249	–
328.26 K	–	7.25e-08
329.22 K	–	7.23e-08
329.88 K	–	7.2e-08

C1=CCCCC1 [cyclohexene]
Conditions	thermal conductivity [W/m/K]	thermal diffusivity [m2/s]
257.22 K	0.1406	–
257.42 K	0.1404	–
257.57 K	0.1404	–
257.97 K	–	1.01e-07
258.49 K	–	1.01e-07
258.86 K	–	1.01e-07
275.37 K	0.1348	–
275.58 K	0.1346	–
275.73 K	0.1346	–
276.12 K	–	9.55e-08
276.65 K	–	9.55e-08
277.03 K	–	9.56e-08
295.57 K	0.1284	–
295.77 K	0.1282	–
295.92 K	0.1281	–
296.28 K	0.1278	–
296.29 K	–	8.83e-08
296.49 K	0.1277	–
296.65 K	0.1276	–
296.77 K	–	8.78e-08
297.03 K	–	8.88e-08
297.15 K	–	8.79e-08
297.55 K	–	8.87e-08
297.94 K	–	8.88e-08
311.67 K	0.1231	–
311.89 K	0.1229	–
312.04 K	0.1228	–
312.42 K	–	8.46e-08
312.96 K	–	8.46e-08
313.32 K	–	8.42e-08
327.85 K	0.118	–
328.07 K	0.1178	–
328.22 K	0.1177	–
328.59 K	–	7.97e-08
329.13 K	–	7.97e-08
329.49 K	–	7.94e-08

C1=CCC=CC1 [1,4-cyclohexadiene]
Conditions	thermal conductivity [W/m/K]	thermal diffusivity [m2/s]
258.46 K	0.1586	–
258.67 K	0.1584	–
258.82 K	0.1583	–
259.36 K	–	1.06e-07
259.93 K	–	1.05e-07
260.35 K	–	1.05e-07
264.86 K	0.1564	–
265.08 K	0.1563	–
265.23 K	0.1562	–
265.75 K	–	1.04e-07
266.36 K	–	1.04e-07
266.77 K	–	1.04e-07
279.38 K	0.1514	–
279.6 K	0.1512	–
279.76 K	0.1511	–
280.29 K	–	9.95e-08
280.9 K	–	9.93e-08
281.33 K	–	9.92e-08
296.2 K	0.1455	–
296.43 K	0.1453	–
296.6 K	0.1452	–
297.14 K	–	9.5e-08
297.75 K	–	9.45e-08
298.19 K	–	9.45e-08
313.9 K	0.1393	–
314.13 K	0.139	–
314.31 K	0.139	–
314.86 K	–	9.01e-08
315.48 K	–	8.95e-08
315.93 K	–	8.95e-08
328.51 K	0.1343	–
328.75 K	0.1341	–
328.93 K	0.134	–
329.48 K	–	8.61e-08
330.11 K	–	8.57e-08
330.58 K	–	8.57e-08
